Assay results reported in patent publication US6596762B2, “Antioxidant compositions and use for treatment of hepatic steatosis and steatohepatitis” (The Regents of The University of Colorado, priority 2001, dated 2003).

Experiments:
[1] = tested on: children with NASH; conditions: oral vitamin E 400 to 1200 IU per day, during therapy; cited from earlier work
[2] = tested on: fat-laden hepatocytes; assay: Protection of fat-laden liver cells exposed to bile acids; type: cell-based, rat; conditions: fat-laden liver cells exposed to relatively low concentrations of bile acids
Excerpt: The antioxidants in this mixture were chosen for the following scientific reasons. […] Briefly, fat-laden hepatocytes were isolated from the Zucker rat model of hepatic steatosis and from lean littermate Zucker rats. […] Without being bound by theory, the present inventor believes that the fatty liver is more prone to hepatocyte necrosis and thus is at risk for severe injury from minor and major insults. […] Studies from the present inventor's laboratory have shown that the effect of vitamin E is probably mediated through reduction of free radical production from mitochondria (Yerushalmi et al., Hepatology 2001; 33:616-26, incorporated herein by reference in its entirety).

[3] = tested on: isolated rat liver mitochondria; assay: Protection of isolated liver mitochondria against toxic bile acids
Excerpt: (§1) Beta carotene and other carotenoids also function as antioxidants in tissues with low oxygen content (such as the liver) and the present inventor has shown beta carotene to have a protective role in hepatic mitochondria that prevents processes that generate oxygen free radicals (unpublished data). […] (Sokol et al., Hepatology 2001;34(2):277A, incorporated herein by reference in its entirety).

[4] = tested on: isolated human liver mitochondria; assay: as above
Excerpt: as §1

[5] = tested on: lean hepatocytes from lean (Fa/?) Zucker litter-mates; assay: Apoptosis by DAPI fluorescence microscopy of isolated hepatocytes exposed to GCDC; type: cell-based, rat; conditions: lean cells, 100 μM GCDC × 3 hours
Description: (§2) Briefly, 8-week-old obese Zucker (fa/fa) rats (Zucker rat model of hepatic steatosis) and lean (Fa/?) litter-mates were sacrificed. Liver blood tests and liver histology were obtained, and hepatocytes isolated by the recirculating collagenase perfusion technique. Initial trypan blue exclusion exceeded 94%. Cells were incubated in suspension with glycochenodeoxycholic acid (GCDC) (0,-1000 μM) in Krebs-Ringer-HEPES for 4 hours. Aliquots of cells were removed hourly for determination of: (1) hydroperoxide generation measured by fluorescence of dichlorofluororescin diacetate (DCF-DA) that was preloaded into hepatocytes; (2) %LDH release as a measure of cell necrosis; and (3) DAPI fluorescence microscopy of fixed cells to quantify apoptosis. Liver histology was quantitated using a grading system.

[6] = tested on: fat-laden hepatocytes from obese Zucker (fa/fa) rats; assay: as above; type: cell-based, rat; conditions: fat-laden cells, 100 μM GCDC × 3 hours
Description: as §2

[7] = tested on: lean hepatocytes from lean (Fa/?) Zucker litter-mates; assay: Cell necrosis (%LDH release) of isolated hepatocytes exposed to GCDC; type: cell-based, rat; conditions: lean cells, 100 μM GCDC × 3 hours
Description: as §2

[8] = tested on: fat-laden hepatocytes from obese Zucker (fa/fa) rats; assay: as above; type: cell-based, rat; conditions: fat-laden cells, 100 μM GCDC × 3 hours
Description: as §2

[9] = tested on: fat-laden hepatocytes from obese Zucker (fa/fa) rats; assay: Hydroperoxide generation (DCF-DA fluorescence) in isolated hepatocytes exposed to GCDC; type: cell-based, rat; conditions: fat-laden cells exposed to GCDC, compared with lean cells
Description: as §2

Cc1c(C)c2c(c(C)c1O)CC[C@@](C)(CCC[C@H](C)CCC[C@H](C)CCCC(C)C)O2 [alpha tocopherol]
serum AST and ALT [1]: reduced
oxidative stress and hepatocyte cell death [2]: will prevent oxidative stress and hepatocyte cell death

CC1=C(/C=C/C(C)=C/C=C/C(C)=C/C=C/C=C(C)/C=C/C=C(C)/C=C/C2=C(C)CCCC2(C)C)C(C)(C)CCC1 [beta carotene]
mitochondrial swelling and injury induced by toxic bile acids [3]: protects the mitochondria from swelling and injury
production of free radicals ([3]; toxic bile acids): markedly diminishes the production of free radicals
mitochondrial swelling and injury induced by toxic bile acids [4]: protects the mitochondria from swelling and injury
production of free radicals ([4]; toxic bile acids): markedly diminishes the production of free radicals

CC(CCC(=O)NCC(=O)O)C1CCC2C3C(O)CC4CC(O)CCC4(C)C3CCC12C (centres unmarked) [GCDC, glycochenodeoxycholic acid]
apoptosis [5]: 31%
apoptosis [6]: 8%
necrosis (%LDH release) [7]: 24%
necrosis (%LDH release) [8]: 54%
generation of hydroperoxides [9]: trend was present towards increased generation of hydroperoxides
